One assay has as its target AlcR (Emericella nidulans, UniProt P21228). More on the design: key: A, activation; DA, deactivation; DR, derepression. The note with it: AIR; PAIR (OalcA-PhCMVmin); cited from earlier work.
The target in assay [1] is T1, mifepristone-inducible transcription factor (Homo sapiens, UniProt P06401, V660L).
T1 construct: expressed in transfected cells; host or cells: U87-MG reporter cells, lentiviral transduction
Nature of the assay: Transduction assay: mCherry reporter expression, mifepristone-inducible transcription factor. To be noted: U87-MG reporter cells, cell group E; 0, 1, 100, 1000 or 10000 nM mifepristone; FIG. 4. Format: cell-based.
Protocol: On day 1, reporter cells were transduced with lentivirus encoding the mifepristone-inducible transcription factor construct.
To assay for mifepristone-regulated transcription modulation, cell group E was thawed and four days later, the cells were split into a 48-well plate and treated with 0 nM, 1 nM, 100 nM, 1000 nM, or 10000 nM mifepristone. Six days after the cells were thawed, cells were trypsinized and then resuspended in FACS buffer plus Sytox Red (fluoresces in APC channel) viability dye. Cell mCherry geometric mean fluorescent intensity (gMFI) was measured at each concentration and normalized to no drug as shown in FIG. 4.

The subject of assay [2] is nicotine-inducible transcription factor. The note with it: U87MG reporter cells co-transduced with constructs 12 and 13 (cell group G); nicotine 10 uM and 1 uM; flow cytometry day 5; FIG. 2 and FIG. 3.
Protocol: U87MG cells transduced with a 4×ZF10-1 BS_minYBTATA:mCherry vector (referred to as “reporter cells”) were plated at 6e5/cells in a 6 well plate on day 0.
Cannabinoid-inducible transcription factor constructs included a first monomer construct (construct 14) composed of a first anti-CBD VHH (CA-14), a zinc finger protein domain of SEQ ID NO: 1, a nuclear localization signal of SEQ ID NO: 2, a cleavable linker, and a BFP tag, and a second monomer construct (construct 15) composed of a 3×FLAG-tagged nuclear localization signal (NLS) of SEQ ID NO: 2, a VPR transcriptional activation domain, a second anti-CBD VHH that is oligomerizable with the first anti-CBD VHH (DB-21), a cleavable linker, and a GFP tag.
Day 5, flow cytometry was performed, and the cells were gate on GFP/BFP

Chain of AlcR (P21228 whole entry): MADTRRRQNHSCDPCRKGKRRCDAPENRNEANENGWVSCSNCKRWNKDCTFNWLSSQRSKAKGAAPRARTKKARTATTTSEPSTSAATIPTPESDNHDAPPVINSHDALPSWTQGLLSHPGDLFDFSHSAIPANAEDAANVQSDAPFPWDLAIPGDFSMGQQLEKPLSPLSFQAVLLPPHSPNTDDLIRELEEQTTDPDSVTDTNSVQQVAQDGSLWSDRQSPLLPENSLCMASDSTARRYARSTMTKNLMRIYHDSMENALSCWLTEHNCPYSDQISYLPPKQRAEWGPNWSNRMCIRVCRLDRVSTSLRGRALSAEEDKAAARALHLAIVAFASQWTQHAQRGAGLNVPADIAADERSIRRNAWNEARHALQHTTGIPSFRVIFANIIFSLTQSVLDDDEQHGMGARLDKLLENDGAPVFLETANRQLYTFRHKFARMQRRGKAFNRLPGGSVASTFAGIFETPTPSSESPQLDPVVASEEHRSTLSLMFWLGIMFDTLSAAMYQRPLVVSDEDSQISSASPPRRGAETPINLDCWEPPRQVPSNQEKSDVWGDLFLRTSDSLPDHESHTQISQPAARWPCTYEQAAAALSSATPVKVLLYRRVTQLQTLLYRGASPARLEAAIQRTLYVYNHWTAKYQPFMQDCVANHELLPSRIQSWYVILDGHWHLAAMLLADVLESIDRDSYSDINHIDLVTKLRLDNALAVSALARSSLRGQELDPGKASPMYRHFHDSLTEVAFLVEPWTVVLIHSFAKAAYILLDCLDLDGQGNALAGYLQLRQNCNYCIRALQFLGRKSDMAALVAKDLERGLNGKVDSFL
T1 sequence (P06401 with tags, fused parts or gaps V660L): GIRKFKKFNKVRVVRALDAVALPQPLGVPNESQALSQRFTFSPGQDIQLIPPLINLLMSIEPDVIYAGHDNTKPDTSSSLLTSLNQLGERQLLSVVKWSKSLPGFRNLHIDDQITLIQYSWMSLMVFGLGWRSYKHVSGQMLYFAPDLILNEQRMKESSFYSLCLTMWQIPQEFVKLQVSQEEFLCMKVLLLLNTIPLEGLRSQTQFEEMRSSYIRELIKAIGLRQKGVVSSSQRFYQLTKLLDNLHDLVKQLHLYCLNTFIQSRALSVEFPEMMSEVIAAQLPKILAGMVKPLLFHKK

In the case of `CC=O` [Acetaldehyde], the “Response to inducer: T (transgene transcription)” value at AlcR is recorded as “A”.

On to `CC#C[C@]1(O)CC[C@H]2[C@@H]3CCC4=CC(=O)CCC4=C3[C@@H](c3ccc(N(C)C)cc3)C[C@@]21C` [mifepristone], for which the “mCherry expression (mCherry gMFI normalized to no drug)” value in assay [1] is reported as “induced mCherry expression in the presence of drug in a concentration-dependent manner”.

Turning to `CN1CCCC1c1cccnc1` (stereo not drawn) [nicotine], in assay [2], the “reporter (mCherry) expression: percent of mCherry positive cells and mean fluorescent intensity” value is reported as “induced concentration-dependent reporter expression”.
